This passage reports MIC results from DBAASP.

Among the test systems are Escherichia coli BL21; Pseudomonas syringae; Escherichia coli K-12; Edwardsiella tarda; Escherichia coli MC1061; Aeromonas sobria.
Holding throughout (test): ≥ marks a high value that may be exact or a test limit, other limits are often not marked, values filed in µg/mL are converted to µM
Test [1] has as its system Streptococcus pyogenes GAS M1T1.
In test [2] the test system is Xanthomonas axonopodis pv. phaseoli ATCC 9563.
Test [3] relates to Pseudomonas aeruginosa PAO1.
Test [4] has as its system Klebsiella pneumoniae CGMCC 1.1736.
The subject of test [5] is Staphylococcus epidermidis CGMCC 1.4260.
In test [6] the test system is Pseudomonas aeruginosa CGMCC 1.2421.
The subject of test [7] is Bacillus subtilis CGMCC 1.3376.
Test [8] deals with Escherichia coli CGMCC 1.8732.
For test [9], the system named is Staphylococcus aureus CGMCC 1.8721.
The subject of test [10] is Micrococcus luteus NCIMB 13267.
The subject of test [11] is Bacillus subtilis ATCC 6633.
The test system of test [12] is Pseudomonas aeruginosa ATCC 27853.
Test [13] concerns Staphylococcus aureus ATCC 6538.
Test [14] concerns Staphylococcus epidermidis ATCC 51625.
In test [15] the test system is Staphylococcus aureus ATCC 33591.
Test [16] has as its system Staphylococcus aureus ATCC 29213.
For test [17], the system named is Staphylococcus epidermidis ATCC 12228.
Test [18] has as its system Escherichia coli ATCC 11775.
The test system of test [19] is Acinetobacter baumannii ATCC 19606.
In test [20] the test system is Enterococcus faecalis ATCC 7080.
The test system of test [21] is Pseudomonas aeruginosa ATCC 25668.
Test [22] concerns Staphylococcus aureus ATCC BAA-44.
The test system of test [23] is Escherichia coli ATCC 25322.
Test [24] relates to Staphylococcus aureus ATCC 25923.
Test [25] concerns Bacillus subtilis CGMCC 1.108.
The subject of test [26] is Micrococcus luteus CGMCC 1.0634.
In test [27] the test system is Micrococcus luteus CGMCC 1.634.
Test [28] has as its system Candida albicans CGMCC 2.2411.
Test [29] deals with Pseudomonas fluorescens CGMCC 1.0032.
Test [30] concerns Corynebacterium glutamicum CGMCC 1.1886.
Test [31] relates to Staphylococcus epidermidis CGMCC 1.2429.
Test [32] concerns Vibrio harveyi CGMCC 1.1593.
Test [33] has as its system Vibrio parahaemolyticus CGMCC 1.1615.
The test system of test [34] is Staphylococcus aureus CGMCC 1.363.
In test [35] the test system is Shigella flexneri CGMCC 1.1868.
The test system of test [36] is Vibrio alginolyticus CGMCC 1.1833.
The test system of test [37] is Aeromonas hydrophila CGMCC 1.0927.
For test [38], the system named is Vibrio fluvialis CGMCC 1.1609.

SMILES strings stand for the structures. Values after ≈ are worked out from the molar mass of the structure shown.

As a reminder, the MIC is the lowest concentration that inhibits growth of the organism. Read a high MIC as weaker potency. With `CC[C@H](C)[C@H](NC(=O)[C@H](CCCCN)NC(=O)[C@H](CC(N)=O)NC(=O)[C@H](CCCCN)NC(=O)[C@H](CC(C)C)NC(=O)[C@H](Cc1ccc(O)cc1)NC(=O)[C@H](CCC(N)=O)NC(=O)[C@H](CCCN=C(N)N)NC(=O)[C@@H](NC(=O)[C@@H](NC(=O)[C@H](CCCCN)NC(=O)[C@H](CCCCN)NC(=O)CNC(=O)[C@H](C)N)[C@@H](C)O)[C@@H](C)CC)C(=O)N[C@@H](CCCCN)C(=O)N[C@@H](CCCCN)C(=O)N[C@@H](CCCCN)C(=O)N[C@@H](Cc1c[nH]c2ccccc12)C(=O)N[C@@H](CCCN=C(N)N)C(=O)N[C@@H](CCCCN)C(=O)N[C@@H](C)C(=O)N[C@H](C(=O)N[C@H](C(=O)N[C@@H](C)C(=O)N[C@@H](Cc1c[nH]c2ccccc12)C(=O)O)[C@@H](C)CC)C(C)C` [AGKKTIRQYLKNKIKKKWRKAVIAW], the MIC in test [1] was determined as 8 µM (≈ 24.5 µg/mL); in test [2], 1 µM (≈ 3.06 µg/mL); against Escherichia coli BL21, 8 µM (≈ 24.5 µg/mL); in test [3], 10 µM (≈ 30.6 µg/mL); against Pseudomonas syringae it was 8 µM (≈ 24.5 µg/mL).
`CC[C@H](C)[C@H](NC(=O)[C@H](C)N)C(=O)NCC(=O)N[C@@H](CO)C(=O)N[C@H](C(=O)N[C@@H](CC(C)C)C(=O)NCC(=O)N[C@@H](CCCN=C(N)N)C(=O)N[C@@H](CC(C)C)C(=O)N[C@@H](C)C(=O)N[C@@H](CCCCN)C(=O)NCC(=O)N[C@@H](CC(C)C)C(=O)N1CCC[C@H]1C(=O)N[C@H](C(=O)N[C@@H](CC(C)C)C(=O)N[C@@H](CCCCN)C(=O)N[C@@H](CO)C(=O)N[C@@H](Cc1c[nH]c2ccccc12)C(=O)N[C@H](C(=O)N[C@@H](CCCCN)C(=O)N[C@@H](CC(N)=O)C(=O)N[C@@H](CCCN=C(N)N)C(N)=O)[C@@H](C)CC)[C@@H](C)O)[C@@H](C)CC` [AIGSILGRLAKGLPTLKSWIKNR]: the MIC was 25 µM (≈ 62.3 µg/mL) in test [4]; 6.25 µM (≈ 15.6 µg/mL) in test [5]; 25 µM (≈ 62.3 µg/mL) in test [6]; 12.5 µM (≈ 31.2 µg/mL) in test [7]; 25 µM (≈ 62.3 µg/mL) in test [8]; ≥ 100 µM in test [9].
As for `CC(C)C[C@H](NC(=O)[C@H](CCCCN)NC(=O)[C@H](C)NC(=O)[C@H](CC(C)C)NC(=O)[C@H](CCCCN)NC(=O)[C@H](CCC(N)=O)NC(=O)[C@H](CCCCN)NC(=O)[C@H](CC(C)C)NC(=O)[C@H](CCCCN)NC(=O)[C@H](CCC(N)=O)NC(=O)[C@H](CC(C)C)NC(=O)[C@H](CCCCN)NC(=O)[C@H](C)NC(=O)[C@H](CCCCN)NC(=O)[C@H](CC(C)C)NC(=O)[C@H](CCCCN)NC(=O)[C@H](C)NC(=O)[C@H](CC(C)C)NC(=O)[C@H](CCCCN)NC(=O)[C@H](CCC(N)=O)NC(=O)[C@@H](N)CCCCN)C(=O)O` [KQKLAKLKAKLQKLKQKLAKL], the MIC in test [10] is 12 µM (≈ 29.4 µg/mL); against Escherichia coli K-12, 3 µM (≈ 7.34 µg/mL); in [11], 6 µM (≈ 14.7 µg/mL); in test [12] it was 12 µM (≈ 29.4 µg/mL); in [13], > 50 µM.
Consider `CC(C)C[C@H](NC(=O)[C@H](Cc1c[nH]c2ccccc12)NC(=O)[C@H](CCCCN)NC(=O)[C@H](CC(C)C)NC(=O)[C@H](Cc1c[nH]c2ccccc12)NC(=O)[C@H](CCCCN)NC(=O)[C@H](CCCCN)NC(=O)[C@H](CC(C)C)NC(=O)[C@H](Cc1c[nH]c2ccccc12)NC(=O)[C@@H](N)CCCCN)C(=O)N[C@@H](CCCCN)C(=O)N[C@@H](CCCCN)C(N)=O` [KWLKKWLKWLKK], for which the MIC is 1.19 µM (≈ 2 µg/mL) in [14]; 1.19 µM (≈ 2 µg/mL) in test [15]; 1.19 µM (≈ 2 µg/mL) in [16]; 1.19 µM (≈ 2 µg/mL) in test [17]; 1.19 µM (≈ 2 µg/mL) in test [18]; 4.75 µM (≈ 8 µg/mL) in test [19]. The MIC turned out to be 9.49 µM (≈ 16 µg/mL) in test [20], 1.19 µM (≈ 2 µg/mL) in test [21] and 2.37 µM (≈ 4 µg/mL) in [22].
In the case of `CC(C)C[C@H](NC(=O)CNC(=O)[C@H](CC(N)=O)NC(=O)[C@@H](NC(=O)[C@@H](NC(=O)CNC(=O)[C@H](CC(C)C)NC(=O)[C@H](C)NC(=O)[C@H](CCCCN)NC(=O)[C@H](CC(N)=O)NC(=O)[C@H](CC(C)C)NC(=O)[C@H](CC(C)C)NC(=O)[C@@H](N)CC(N)=O)[C@@H](C)O)C(C)C)C(=O)N[C@@H](CC(C)C)C(=O)NCC(=O)N[C@@H](CCCN=C(N)N)C(=O)N[C@@H](CO)C(=O)O` [NLLNKALGTVNGLLGRS], the MIC in test [23] was ≥ 64 µM; in test [24] it was 32 µM (≈ 55.7 µg/mL).
In the case of `CC[C@H](C)[C@H](NC(=O)[C@H](CCCN=C(N)N)NC(=O)CNC(=O)[C@@H](NC(=O)[C@@H]1CCCN1C(=O)[C@H](Cc1ccccc1)NC(=O)[C@H](CCC(N)=O)NC(=O)[C@H](CC(C)C)NC(=O)CNC(=O)[C@H](C)NC(=O)[C@H](CCCN=C(N)N)NC(=O)[C@H](C)NC(=O)[C@H](CO)NC(=O)[C@@H](N)CCCN=C(N)N)C(C)C)C(=O)N[C@@H](Cc1cnc[nH]1)C(=O)N[C@@H](CCCN=C(N)N)C(=O)N[C@@H](Cc1cnc[nH]1)C(=O)N[C@@H](CC(C)C)C(=O)N[C@@H](CCCCN)C(=O)O` [RSARAGLQFPVGRIHRHLK], the MIC was ≥ 48 µM in the test on Edwardsiella tarda; 4.24 µM (≈ 9.33 µg/mL) in test [25]; 4.24 µM (≈ 9.33 µg/mL) in [26]; 2.12 µM (≈ 4.67 µg/mL) in [27]; ≥ 48 µM in [28]; 4.24 µM (≈ 9.33 µg/mL) in test [29]. In addition, the MIC in test [30] was 2.12 µM (≈ 4.67 µg/mL); in test [31], 17 µM (≈ 37.3 µg/mL); in test [32] it was ≥ 48 µM; in the test with Escherichia coli MC1061 it was 4.24 µM (≈ 9.33 µg/mL); in test [33] it was ≥ 48 µM; in [34] it was 4.24 µM (≈ 9.33 µg/mL). Moreover, the MIC was ≥ 48 µM in the test with Aeromonas sobria; 4.24 µM (≈ 9.33 µg/mL) in [35]; ≥ 48 µM in test [36]; 4.24 µM (≈ 9.33 µg/mL) in [37]; ≥ 48 µM in test [38].
